In brackets after ≈: the same amount, converted by molar mass.
Legend:
Type in all cases: functional
Staphylococcus aureus [1] = test: Antistaphylococcal activity against vancomycin-resistant Staphylococcus aureus 509
Staphylococcus aureus [2] = test: Antistaphylococcal activity against vancomycin-intermediate Staphylococcus aureus 507
Staphylococcus aureus [3] = test: Antistaphylococcal activity against vancomycin-resistant Staphylococcus aureus
Staphylococcus aureus [4] = test: Antistaphylococcal activity against quinolone-susceptible methicillin-resistant Staphylococcus aureus
Staphylococcus aureus [5] = test: Antistaphylococcal activity against quinolone-resistant Staphylococcus aureus 261
Staphylococcus aureus [6] = test: Antistaphylococcal activity against vancomycin-resistant Staphylococcus aureus 512
Staphylococcus aureus [7] = test: Antistaphylococcal activity against methicillin-sensitive Staphylococcus aureus
Staphylococcus aureus [8] = test: Antistaphylococcal activity against vancomycin-intermediate Staphylococcus aureus
Staphylococcus aureus [9] = test: Antistaphylococcal activity against vancomycin-intermediate Staphylococcus aureus 506
Staphylococcus aureus [10] = test: Antistaphylococcal activity against vancomycin-intermediate Staphylococcus aureus 508
Staphylococcus aureus [11] = test: Antistaphylococcal activity against vancomycin-intermediate Staphylococcus aureus 505
Staphylococcus aureus [12] = test: Antistaphylococcal activity against quinolone and methicillin-resistant Staphylococcus aureus
Staphylococcus aureus [13] = test: Antistaphylococcal activity against vancomycin-intermediate Staphylococcus aureus 555
Staphylococcus aureus [14] = test: Antistaphylococcal activity against quinolone-resistant Staphylococcus aureus 508
Staphylococcus aureus [15] = test: Antistaphylococcal activity against vancomycin-resistant Staphylococcus aureus 510
Staphylococcus aureus [16] = test: Antistaphylococcal activity against quinolone-resistant Staphylococcus aureus 241
Staphylococcus aureus [17] = test: Antistaphylococcal activity against quinolone-resistant Staphylococcus aureus 242
Staphylococcus aureus [18] = test: Antistaphylococcal activity against vancomycin-intermediate Staphylococcus aureus 504

| SMILES | MIC (Staphylococcus aureus [1]) | MIC (Staphylococcus aureus [2]) | MIC (Staphylococcus aureus [3]) | MIC (Staphylococcus aureus [4]) | MIC (Staphylococcus aureus [5]) | MIC (Staphylococcus aureus [6]) | MIC (Staphylococcus aureus [7]) | MIC (Staphylococcus aureus [8]) | MIC (Staphylococcus aureus [9]) | MIC (Staphylococcus aureus [10]) | MIC (Staphylococcus aureus [11]) | MIC (Staphylococcus aureus [12]) | MIC (Staphylococcus aureus [13]) | MIC (Staphylococcus aureus [14]) | MIC (Staphylococcus aureus [15]) | MIC (Staphylococcus aureus [16]) | MIC (Staphylococcus aureus [17]) | MIC (Staphylococcus aureus [18]) |
| --- | --- | --- | --- | --- | --- | --- | --- | --- | --- | --- | --- | --- | --- | --- | --- | --- | --- | --- |
| COc1c(N2CC[C@@H](C3(N)CC3)C2)ccc2c(=O)c(C(=O)O)cn([C@@H]3C[C@@H]3F)c12 | 0.06 µg/mL (≈ 0.149 µM) | 0.06 µg/mL (≈ 0.149 µM) | 0.125 µg/mL (≈ 0.311 µM) | 0.008 µg/mL (≈ 0.0199 µM) | 0.004 µg/mL (≈ 0.00996 µM) | 0.06 µg/mL (≈ 0.149 µM) | 0.004 µg/mL (≈ 0.00996 µM) | 0.016 µg/mL (≈ 0.0399 µM) | 0.06 µg/mL (≈ 0.149 µM) | 0.004 µg/mL (≈ 0.00996 µM) | 0.004 µg/mL (≈ 0.00996 µM) | 0.06 µg/mL (≈ 0.149 µM) | 0.06 µg/mL (≈ 0.149 µM) | 0.004 µg/mL (≈ 0.00996 µM) | 0.06 µg/mL (≈ 0.149 µM) | 0.004 µg/mL (≈ 0.00996 µM) | 0.004 µg/mL (≈ 0.00996 µM) | 0.06 µg/mL (≈ 0.149 µM) |
| C[C@H]1COc2c(N3CCN(C)CC3)c(F)cc3c(=O)c(C(=O)O)cn1c23.C[C@H]1COc2c(N3CCN(C)CC3)c(F)cc3c(=O)c(C(=O)O)cn1c23.O [LEVOFLOXACIN] | – | – | – | – | – | – | – | – | – | – | – | ≥ 4 µg/mL | – | – | – | – | – | – |
| CN[C@H](CC(C)C)C(=O)N[C@H]1C(=O)N[C@@H](CC(N)=O)C(=O)N[C@H]2C(=O)N[C@H]3C(=O)N[C@H](C(=O)N[C@H](C(=O)O)c4cc(O)cc(O)c4-c4cc3ccc4O)[C@H](O)c3ccc(c(Cl)c3)Oc3cc2cc(c3O[C@@H]2O[C@H](CO)[C@@H](O)[C@H](O)[C@H]2O[C@H]2C[C@](C)(N)[C@H](O)[C@H](C)O2)Oc2ccc(cc2Cl)[C@H]1O [VANCOMYCIN] | – | – | 32 µg/mL (≈ 22.1 µM) | – | – | – | – | – | – | – | – | – | – | – | 0.05 µg/mL (≈ 0.0345 µM) | – | – | – |

Reference: ChEMBL document CHEMBL1147106, “Antistaphylococcal activity of DX-619 alone and in combination with vancomycin, teicoplanin, and linezolid assessed by time-kill synergy testing” (2007)
